Assay results published in PubChem BioAssay (NCI).
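Grown in 96-well plates, cells were treated for 48 hours with each compound at five concentrations. Insufficient inhibition: endpoint recorded as highest concentration tested. GI50 is the concentration that inhibits growth by half. TGI: total growth inhibition.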

Legend:
Assay in all cases: DTP human tumour cell line panel, 48 h
[1] = test system: BT-549 breast
[2] = test system: T-47D breast
[3] = test system: UACC-257 melanoma
[4] = test system: M14 melanoma
[5] = test system: SK-MEL-28 melanoma
[6] = test system: MOLT-4 leukemia
[7] = test system: MDA-MB-231 breast
[8] = test system: HOP-62 NSCLC
[9] = test system: UACC-62 melanoma
[10] = test system: OVCAR-5 ovarian
[11] = test system: SR leukemia
[12] = test system: HCT-15 colon
[13] = test system: MALME-3M melanoma
[14] = test system: SNB-19 CNS
[15] = test system: CAKI-1 renal
[16] = test system: OVCAR-4 ovarian
[17] = test system: SF-295 CNS
[18] = test system: HT29 colon
[19] = test system: RXF 393 renal
[20] = test system: LOX IMVI melanoma
[21] = test system: EKVX NSCLC
[22] = test system: MCF7 breast
[23] = test system: RPMI-8226 leukemia
[24] = test system: NCI/ADR-RES ovarian
[25] = test system: CCRF-CEM leukemia
[26] = test system: U251 CNS
[27] = test system: KM12 colon
[28] = test system: A498 renal
[29] = test system: SK-OV-3 ovarian
[30] = test system: TK-10 renal
[31] = test system: PC-3 prostate
[32] = test system: SN12C renal
[33] = test system: OVCAR-8 ovarian
[34] = test system: HL-60(TB) leukemia
[35] = test system: COLO 205 colon
[36] = test system: MDA-MB-435
[37] = test system: SK-MEL-2 melanoma
[38] = test system: K-562 leukemia
[39] = test system: HOP-92 NSCLC
[40] = test system: DU-145 prostate
[41] = test system: NCI-H23 lung
[42] = test system: A549 NSCLC
[43] = test system: SNB-75 CNS
[44] = test system: HCT-116 colon
[45] = test system: OVCAR-3 ovarian
[46] = test system: NCI-H226 lung
[47] = test system: ACHN renal
[48] = test system: SW-620 colon
[49] = test system: SF-268 CNS
[50] = test system: UO-31 renal
[51] = test system: IGROV1 ovarian
[52] = test system: SF-539 CNS
[53] = test system: 786-0 renal
[54] = test system: NCI-H460 lung
[55] = test system: HCC-2998 colon
[56] = test system: HS 578T breast
[57] = test system: NCI-H522 lung
[58] = test system: SK-MEL-5 melanoma

COc1cc2c(cc1OCCCCCOc1ccc(-n3c(C)nc4ccccc4c3=O)cc1)N=C[C@@H]1CCCN1C2=O
GI50 [1]: 137 nM
TGI [1]: 340 nM
GI50 [2]: 324 nM
GI50 [3]: 434 nM
TGI [3]: 1480 nM
GI50 [4]: 180 nM
TGI [4]: 375 nM
GI50 [5]: 270 nM
TGI [5]: 853 nM
GI50 [6]: 196 nM
TGI [6]: 500 nM
GI50 [7]: 188 nM
TGI [7]: 636 nM
GI50 [8]: 230 nM
TGI [8]: 524 nM
GI50 [9]: 171 nM
TGI [9]: 336 nM
GI50 [10]: 281 nM
TGI [10]: 678 nM
GI50 [11]: 110 nM
TGI [11]: 393 nM
GI50 [12]: 1130 nM
TGI [12]: 3900 nM
GI50 [13]: 236 nM
TGI [13]: 585 nM
GI50 [14]: 1000 nM
GI50 [15]: 275 nM
TGI [15]: 1020 nM
GI50 [16]: 515 nM
TGI [16]: 13200 nM
GI50 [17]: 391 nM
TGI [17]: 1830 nM
GI50 [18]: 317 nM
TGI [18]: > 100000 nM
GI50 [19]: 210 nM
TGI [19]: 390 nM
GI50 [20]: 176 nM
TGI [20]: 447 nM
GI50 [21]: 778 nM
TGI [21]: 4770 nM
GI50 [22]: 271 nM
TGI [22]: 1300 nM
GI50 [23]: 204 nM
TGI [23]: 545 nM
GI50 [24]: 1960 nM
TGI [24]: 6310 nM
GI50 [25]: 210 nM
TGI [25]: 588 nM
GI50 [26]: 231 nM
TGI [26]: 759 nM
GI50 [27]: 173 nM
TGI [27]: 362 nM
GI50 [28]: 214 nM
TGI [28]: 543 nM
GI50 [29]: 410 nM
TGI [29]: 1890 nM
GI50 [30]: 320 nM
TGI [30]: 867 nM
GI50 [31]: 340 nM
TGI [31]: 2890 nM
GI50 [32]: 264 nM
TGI [32]: 3380 nM
GI50 [33]: 363 nM
TGI [33]: 3000 nM
GI50 [34]: 340 nM
TGI [34]: 1300 nM
GI50 [35]: 165 nM
TGI [35]: 370 nM
GI50 [36]: 184 nM
TGI [36]: 390 nM
GI50 [37]: 377 nM
TGI [37]: 1250 nM
GI50 [38]: 164 nM
GI50 [39]: 394 nM
TGI [39]: 7380 nM
GI50 [40]: 410 nM
TGI [40]: 3740 nM
GI50 [41]: 226 nM
TGI [41]: 528 nM
GI50 [42]: 276 nM
TGI [42]: 982 nM
GI50 [43]: 408 nM
TGI [43]: 3430 nM
GI50 [44]: 167 nM
TGI [44]: 327 nM
GI50 [45]: 346 nM
TGI [45]: 15500 nM
GI50 [46]: 214 nM
TGI [46]: 466 nM
GI50 [47]: 342 nM
TGI [47]: 1530 nM
GI50 [48]: 323 nM
TGI [48]: 2800 nM
GI50 [49]: 376 nM
GI50 [50]: 336 nM
TGI [50]: 1710 nM
GI50 [51]: 182 nM
TGI [51]: 640 nM
GI50 [52]: 285 nM
TGI [52]: 728 nM
GI50 [53]: 157 nM
TGI [53]: 360 nM
GI50 [54]: 248 nM
TGI [54]: 691 nM
GI50 [55]: 256 nM
TGI [55]: 685 nM
GI50 [56]: 232 nM
TGI [56]: 880 nM
GI50 [57]: 204 nM
TGI [57]: 958 nM
GI50 [58]: 176 nM
TGI [58]: 353 nM
